The test relates to total cells in bronchoalveolar lavage fluid. The experiment in a line: Total cell count in bronchoalveolar lavage fluid, PM10D respiratory injury inflammation model. It is filed as in vivo, Balb/c mice. Conditions: vitamin B5 inhaled at 6 mg/kg or more, compared to the induced group and the oral administration group. How it is done:
As an experimental animal, Balb/c mice (male, 6 weeks old, body weight of 15 to 17 g) were purchased from Coretech after receiving approval from the Institutional Animal Care and Use Committee (IACUC). After acclimatization for one week in the breeding room of the KT&G Bio-Efficacy Evaluation Center (temperature 23±2° C., humidity 50±10%, 12-hour light/dark cycle), the mice were used in the experiment. A PM10D mixture was prepared by diluting 3 mg/mL of particulate matter 10 (hereinafter PM10) [ERM-CZ120, Sigma Aldrich, St. Louis, MO, USA] and 0.6 mg/mL of diesel particulate matter (hereinafter DEP) [NIST-2975, Sigma Aldrich, St. Louis, MO, USA] in 1% Alum (Aluminium Hydroxide, 239186, Sigma Aldrich, USA). […] The exposure amount of aerosol (mg/L) was calculated as a dose (mg/kg) using a calculation formula based on a prior art (Alexander et al., Inhal Toxicol. 2008 October; 20(13):1179-89.). […] After centrifugation (1500 RPM/4° C./10 min) of the obtained bronchoalveolar lavage fluid, the supernatant was stored in an ultra-low temperature freezer (−70° C.) to measure cytokines, and cells isolated from the bronchoalveolar lavage fluid were treated with ammonium-chloride-potassium buffer (ACK, A10492-01, Gibco, NY, USA) solution for 10 minutes to lyse red blood cells, and then washed again with phosphate buffered saline, and the total cell count was measured using a hematocytometer. […]

For the compound `CC(C)(CO)[C@@H](O)C(=O)NCCC(=O)O` [vitamin B5, pantothenic acid], the “Total cell count in bronchoalveolar lavage fluid (result in words)” value is “reduced”.

For the origin of these results see patent US20250186378A1, “COMPOSITION INCLUDING VITAMIN B5 FOR IMPROVING RESPIRATORY HEALTH AND TREATING OR PREVENTING RESPIRATORY DISEASES, PHARMACEUTICAL COMPOSITION INCLUDING THE SAME FOR TREATING OR PREVENTING RESPIRATORY DISEASES, AND HEALTH FUNCTIONAL FOOD COMPOSITION INCLUDING THE SAME FOR IMPROVING RESPIRATORY …” (KT&G CORPORATION, priority 2023, published 2025).
